Reference: US20040068006A1, “Method for preventing acute renal failure” (Critical Therapeutics, Inc., priority 2001, published 2004)

System: sepsis-induced acute renal failure
Experiment: Cecal ligation puncture (CLP) sepsis-induced acute renal failure in aged mice
Type: in vivo, mouse
Details: for HPLC creatinine: mean±SE
Procedure: Animal care followed NIH criteria for the care and use of laboratory animals in research. Young (7-8 weeks) and aged (42-44 weeks) male C57BL/6 mice [National Institutes of Health (NIH), Frederick, Md.] had free access to water and chow (NIH-07) Rodent chow, Zeigler Bros., Gardners, Pa.) before and after surgery.
Aged mice were anesthetized with 100 mg/kg ketamine, 10 mg/kg xylazine, and 1 mg/kg acepromazine IM. After laparotomy, a 5-0 silk ligature was placed 5 mm from the cecal tip. The cecum was punctured twice with a 21-gauge needle and gently squeezed to express a 1 mm column of fecal material. In sham operated animals, the cecum was located, but neither ligated nor punctured. The abdominal incision was closed in two layers with 6-0 nylon sutures. After surgery, one ml of pre-warmed normal saline was given IP. All animals received a broad spectrum antibiotic (imipenem/cilastatin; 25 mg/kg SC), then 1.5 ml of 3/4 saline was administered at 6 and 18 hr after surgery by SC injection. At the time of sacrifice, blood was collected from abdominal aorta for measurement of blood chemistries. The kidneys were harvested for histological and mechanistic studies.
Survival after surgery was assessed every 6 hr within the first 48 hr and then every 8 hr for 4 days. Antibiotic injection and fluid resuscitation were started 6 hr after CLP by SC injection, and then repeated every 12 hr for 4 days.
Animals received 0.4 ml of Ringers lactate (RL) [130 mM Na+, 4 mM K+, 2.7 mM Ca+, 109 mM Cl^−, and 28 mM lactate] or a similar volume of freshly-made Ringers ethyl pyruvate (EP) where EP (Sigma) was substituted for sodium lactate. A single dose was injected IP at 0, 6, or 12 hr after CLP surgery.
Serum levels of blood urea nitrogen (BUN), aspartate transaminase (AST), alanine transaminase (ALT), amylase, creatine kinase (CK) and lactate dehydrogenase (LDH) were measured using an autoanalyzer (Hitachi 917, Boehringer Mannheim, Indianapolis, MN). Serum creatinine were measured by a picric acid-based colorimetric kinetic autoanalyzer (Astra 8 autoanalyzer; Beckman Instruments, Fullerton, Calif.). Serum […] was also measured by high-performance liquid chromatography (HPLC) Johns et al., B Biomed. Sci. Appl. 759:343 (2001)). Acetonitrile was added to serum, centrifuged, and the supernatant fraction was dried, resuspended in 5 mM sodium acetate pH 5.1, and chromatrographed isocratically on a PRP-X200 cation exchange column (Hamilton, Reno Nev.) and detected by UV absorbance at 234 nm (Agilent Technologies, Palo Alto, Calif.).
10% Formalin-fixed and paraffin-embedded kidney sections were stained with periodic acid-Schiff reagent (PAS) or naphthol AS-D chloroacetate esterase (Sigma; St. Louis, Mo.). Histological changes in the cortex and in the outer stripe of the outer medulla (OSOM) were assessed by quantitative measurements of tissue damage. Tubular damage was defined as tubular epithelial swelling, loss of brush border, vacuolar degeneration, necrotic tubules, cast formation, and desquamation. The degree of kidney damage was estimated at 400× magnification using 5 randomly selected fields for each animal by the following criteria: 0, normal; 1, areas of damage <25% of tubules; 2, damage involving 25-50% of tubules, 3, damage involving 50 to 75% of tubules; 4, 75-100% of the area being affected.
All data are expressed as means±SE. Differences between groups were examined for statistical significance by ANOVA with a multiple comparison correction (StatView 4.5, Berkeley, Calif.; or SigmaStat 2.0, SPSS, San Rafael, Calif.). A P value <0.05 was accepted as statistically significant.

**Q.** Which results are given for `CCOC(=O)C(C)=O` [EP, ethyl pyruvate]?
**A.** tubular damage in cortex and OSOM (EP at 0, 6 or 12 hr after CLP, measured at 24 hr): significantly reduced the tubular damage; HPLC creatinine (higher dose (40 mg/kg) EP, single IP dose delayed until 6 hr after surgery): 0.13 ± 0.01 mg/dL; HPLC creatinine (higher dose (40 mg/kg) EP, single IP dose delayed until 12 hr after surgery): 0.17 ± 0.03 mg/dL; HPLC creatinine (single IP dose 8 mg/kg EP after CLP surgery (0 hr), RL vehicle 0.33±0.07 mg/dl): 0.17 ± 0.02 mg/dL; HPLC creatinine (single IP dose 40 mg/kg EP after CLP surgery (0 hr), RL vehicle 0.33±0.07 mg/dl): 0.14 ± 0.02 mg/dL; renal injury as measured by BUN or HPLC creatinine (single dose of either 8 or 40 mg/kg EP after surgery, vs. RL): significantly prevented the renal injury; acute renal failure (summary statement referring to Example 1): inhibits acute renal failure; therapeutic window for sepsis-induced acute renal failure (treatment start after CLP surgery): ≥ 12 h; amount of protection for tubular injury score (without much change with delayed treatment (up to 12 hr)): 60-80%
